How the values were obtained:
Assay type in all cases: cell-based
[1] = target: T1, Alpha 2B adrenergic receptor (Homo sapiens, UniProt P18089); assay: RSAT (Receptor Selection and Amplification Technology) assay, alpha 2B; conditions: for Intrinsic Activity EC50 Alpha 2B / EC50: cells expressing alpha 2B receptor alone, receptor-mediated growth response, NA = not active; for Intrinsic Activity (efficacy) Alpha 2B: relative efficacy compared to a standard full agonist; for EC50: read-out: Intrinsic Activity EC50 Alpha 2B
T1 construct: expressed in transfected cells
T1 sequence (P18089 1-450): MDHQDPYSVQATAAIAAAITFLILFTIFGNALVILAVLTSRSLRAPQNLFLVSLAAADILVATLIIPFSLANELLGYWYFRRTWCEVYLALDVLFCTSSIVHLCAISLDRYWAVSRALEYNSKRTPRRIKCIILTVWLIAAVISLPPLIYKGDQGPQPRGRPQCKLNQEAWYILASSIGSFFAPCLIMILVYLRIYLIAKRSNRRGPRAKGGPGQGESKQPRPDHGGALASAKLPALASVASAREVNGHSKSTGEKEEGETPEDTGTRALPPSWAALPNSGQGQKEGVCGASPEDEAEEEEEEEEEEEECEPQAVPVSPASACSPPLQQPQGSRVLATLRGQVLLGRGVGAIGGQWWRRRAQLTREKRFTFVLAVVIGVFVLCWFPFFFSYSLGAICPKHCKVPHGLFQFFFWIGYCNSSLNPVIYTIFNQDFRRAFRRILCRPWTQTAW
Procedure: (§1) Cells expressing each of the alpha 2 adrenergic receptors alone were incubated with the various compounds and a receptor-mediated growth response was measured. The compound's activity is expressed as its relative efficacy compared to a standard full agonist (see Table 3).

[2] = target: T2, Alpha 2C adrenergic receptor (Homo sapiens, UniProt P18825); assay: RSAT (Receptor Selection and Amplification Technology) assay, alpha 2C; conditions: for Intrinsic Activity (efficacy) Alpha 2C: relative efficacy compared to a standard full agonist; for EC50: read-out: Intrinsic Activity EC50 Alpha 2C
T2 construct: expressed in transfected cells
T2 sequence (P18825 1-462): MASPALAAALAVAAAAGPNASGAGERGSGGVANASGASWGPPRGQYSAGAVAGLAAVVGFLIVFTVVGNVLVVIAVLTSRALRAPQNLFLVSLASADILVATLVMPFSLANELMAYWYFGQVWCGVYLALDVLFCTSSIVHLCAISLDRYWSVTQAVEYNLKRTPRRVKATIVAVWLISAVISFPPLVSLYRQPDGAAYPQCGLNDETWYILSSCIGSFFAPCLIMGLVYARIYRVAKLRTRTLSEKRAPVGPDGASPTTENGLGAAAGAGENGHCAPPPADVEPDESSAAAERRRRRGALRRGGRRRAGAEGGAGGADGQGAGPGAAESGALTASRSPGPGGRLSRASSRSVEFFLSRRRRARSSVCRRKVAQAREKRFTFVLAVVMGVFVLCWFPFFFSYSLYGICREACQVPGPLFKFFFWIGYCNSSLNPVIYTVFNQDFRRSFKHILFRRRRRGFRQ
Procedure: as §1

[3] = target: T3, Alpha 2A adrenergic receptor (Homo sapiens, UniProt P08913); assay: RSAT (Receptor Selection and Amplification Technology) assay, alpha 2A; conditions: for EC50: cells expressing alpha 2A receptor alone, receptor-mediated growth response, NA = not active, read-out: Intrinsic Activity EC50 Alpha 2A; for Intrinsic Activity (efficacy) Alpha 2A: relative efficacy compared to a standard full agonist
T3 construct: expressed in transfected cells
T3 sequence (P08913 1-465): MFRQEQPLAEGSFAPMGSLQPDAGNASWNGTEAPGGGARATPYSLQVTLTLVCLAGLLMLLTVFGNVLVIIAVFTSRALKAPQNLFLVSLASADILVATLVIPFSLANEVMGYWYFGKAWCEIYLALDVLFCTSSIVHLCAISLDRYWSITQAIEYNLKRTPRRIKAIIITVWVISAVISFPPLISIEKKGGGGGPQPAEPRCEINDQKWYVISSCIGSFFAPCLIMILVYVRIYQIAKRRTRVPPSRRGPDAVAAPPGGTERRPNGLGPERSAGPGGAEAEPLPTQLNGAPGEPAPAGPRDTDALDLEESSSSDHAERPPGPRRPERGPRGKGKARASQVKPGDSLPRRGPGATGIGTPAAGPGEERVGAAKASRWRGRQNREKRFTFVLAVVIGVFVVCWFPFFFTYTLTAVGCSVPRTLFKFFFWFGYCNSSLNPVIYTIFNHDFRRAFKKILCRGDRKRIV
Procedure: as §1

[4] = cells expressing alpha 2C receptor alone, receptor-mediated growth response, NA = not active

Row | SMILES | Intrinsic Activity EC50 Alpha 2B [1] | Intrinsic Activity (efficacy) Alpha 2B [1] | Intrinsic Activity EC50 Alpha 2C [2, 4] | Intrinsic Activity (efficacy) Alpha 2C [2] | EC50 [3] [nM] | Intrinsic Activity (efficacy) Alpha 2A [3] | EC50 [1] [nM] | EC50 [2, 4] [nM]
1 | Cc1c(N=C2NCCN2)cnc2[nH]ccc12 [Compound 1, N-(4,5-dihydro-1H-imidazol-2-yl)-4-methyl-1H-pyrrolo[2,3-b]pyridin-5-amine] | potent | (0.82) | potent | (0.94) | 8.2 | 0.85 | – | –
2 | Clc1c(N=C2NCCN2)cnc2[nH]ccc12 [Compound 2, 4-Chloro-N-(imidazolidin-2-ylidene)-1H-pyrrolo[2,3-b]pyridin-5-amine] | – | 0.72 | – | 0.91 | 25.2 | 0.73 | 5.36 | 10.5
3 | Brc1c(N=C2NCCN2)cnc2[nH]ccc12 [Compound 3, 4-Bromo-N-(imidazolidin-2-ylidene)-1H-pyrrolo[2,3-b]pyridin-5-amine] | – | 0.17 | – | 0.84 | 62.2 | 0.16 | 32.6 | 31.2
4 | Cn1ccc2cc(N=C3NCCN3)cnc21 [Compound 4, N-(imidazolidin-2-ylidene)-1-methyl-1H-pyrrolo[2,3-b]pyridin-5-amine] | – | 0.57 | – | 0.93 | – | – | 114 | 31
5 | c1cc2cc(N=C3NCCN3)cnc2o1 [Compound 5, N-(imidazolidin-2-ylidene)furo[2,3-b]pyridin-5-amine] | – | – | – | 0.73 | – | – | – | 2110
6 | c1nc2cc(N=C3NCCN3)cnc2s1 [Compound 6, N-(4,5-dihydro-1H-imidazol-2-yl)thiazolo[5,4-b]pyridin-6-amine] | – | 0.46 | – | 0.97 | – | – | 267 | 10
7 | c1cc2cc(N=C3NCCN3)cnc2[nH]1 [Compound 7, N-(imidazolidin-2-ylidene)-1H-pyrrolo[2,3-b]pyridin-5-amine] | potent | (0.87) | – | 0.94 | 16.2 | 0.89 | – | 7.3
8 | c1nc2cc(N=C3NCCN3)cnc2[nH]1 [Compound 8, N-(imidazolidin-2-ylidene)-3H-imidazo[4,5-b]pyridin-6-amine] | – | 0.61 | – | 0.87 | – | – | 722 | 448

— patent US9034896B2, “N-(imidazolidin-2-ylidene)-heterocyclopenta[b]pyridine derivatives as modulators of alpha 2 adrenergic receptors” (Allergan, Inc., priority 2011, dated 2015)
